Data as given in patent US4283527A, “Erythromycylamine 11,12-carbonate and derivatives thereof” (Pfizer Inc., priority 1980, dated 1981).
Read-outs that look alike come from different tables or passages of the source.

What was measured:
[1] = tested on: Enterobacter aeruginosa; details: strain 67A040
[2] = tested on: Streptococcus pyogenes
[3] = tested on: Klebsiella oxytoca; details: strain 53D024
[4] = tested on: Bacillus subtilis; details: strain 06A001
[5] = tested on: Escherichia coli
[6] = tested on: Hemophilus influenzae; details: strain 54A036
[7] = tested on: Staphylococcus epidermis
[8] = tested on: Providentia retgerii; details: strain 77CA025
[9] = tested on: Morgani morgansus; details: strain 97A001
[10] = tested on: Klebsiella pneumoniae
[11] = tested on: Streptococcus pneumoniae; details: strain 02J012
[12] = tested on: Serratia marcescens; details: strain 63A017
[13] = tested on: Providentia stuarti; details: strain 77A013
[14] = tested on: Staphylococcus aureus
[15] = tested on: Enterobacter cloacea; details: strain 67B009
[16] = tested on: Pasteurella multocida; details: strain 59A001
[17] = tested on: Pseudomonas aeruginosa
[18] = tested on: Neisseria sicca; details: strain 66C000
[19] = tested on: Streptococcus faecalis; details: strain 02A006

Substance: 9(S)-Erythromycylamine 11,12-Carbonate
- MIC [1]: 50 µg/mL
- MIC ([2]; strain 02C040): 0.78 µg/mL
- MIC ([2]; strain 02C203): < .02 µg/mL
- MIC [3]: > 50 µg/mL
- MIC [4]: 0.10 µg/mL
- MIC ([5]; strain 51A125): 25 µg/mL
- MIC ([5]; strain 51A129): 25 µg/mL
- MIC ([5]; strain 51A266): 25 µg/mL
- MIC ([5]; strain 51A470): 0.78 µg/mL
- MIC [6]: 3.12 µg/mL
- MIC ([7]; strain 01B037R, R = resistant to erythromycin): > 50 µg/mL
- MIC ([7]; strain 01B111): 0.20 µg/mL
- MIC ([7]; strain 01B126R, R = resistant to erythromycin): > 50 µg/mL
- MIC [8]: > 50 µg/mL
- MIC [9]: > 50 µg/mL
- MIC ([10]; strain 53A009): 50 µg/mL
- MIC ([10]; strain 53A031): 50 µg/mL
- MIC [11]: 0.10 µg/mL
- MIC [12]: > 50 µg/mL
- MIC [13]: > 50 µg/mL
- MIC ([14]; strain 01A005): 0.20 µg/mL
- MIC ([14]; strain 01A052): 0.20 µg/mL
- MIC ([14]; strain 01A110R, R = resistant to erythromycin): > 50 µg/mL
- MIC ([14]; strain 01A400R, R = resistant to erythromycin): 12.5 µg/mL
- MIC [15]: > 50 µg/mL
- MIC [16]: 0.39 µg/mL
- MIC ([17]; strain 52A104): > 50 µg/mL
- MIC ([17]; strain 52A663): > 50 µg/mL
- MIC [18]: 3.12 µg/mL
- MIC [19]: 0.39 µg/mL
